Data set [1] addresses cDNA-expressed human hepatic CYP3A4 (Homo sapiens (Human), UniProt P08684). As to the kind of experiment: Measurement of CYP (IC50 of P450 CYP3A4), BFC substrate. In kind it is in vitro ADME. The settings on record: 20 minutes. As for the experimental part:
The compounds of the present invention had lower P450 CYP3A4 inhibitory activity (higher IC50). Lower CYP3A4 inhibitory activity means that the compounds of the present invention cause fewer side-effects from the pharmacological point of view.
This assay was performed in a 200 l volume in 96-well microtiter plates using cDNA-expressed human hepatic CYP3A4 (supersome, BD Gentest™ #456202). As a substrate for CYP3A4, 7-benzyloxy-4-trifluoromethyl-coumarin (BFC) was used. The compounds of Examples 1 to 5 and the substrate BFC were dissolved in 100% acetonitrile. The final volume of acetonitrile of the incubation mixture was less than 1% (volume/volume). A potassium phosphate buffer (pH 7.4, final concentration 0.1M), MgCl2 (final concentration 8.3 mM), EDTA (final concentration 1.67 mM), an inventive compound stock solution, CYP3A4 supersome, and NADPH (final concentration 0.25 mM) were added to each well. The reaction was initiated by adding the substrate (BFC, final concentration 30 µM) at 37. The incubation was performed for 20 minutes and then the reaction was terminated by the addition of 75 μl of acetonitrile: 0.5 M tris-base=4:1 (volume/volume).
Then, a fluorescent signal was measured using a fluorometer. A BFC metabolite, 7-hydroxy-4-trifluoromethyl-coumarin, was measured using an excitation wavelength of 409 nm and an emission wavelength of 530 nm.

The test system of data set [2] is MV-4-11 (human, Acute Myeloid Leukemia cell line) cells. As to the kind of experiment: Cell growth inhibition assay, GI50 of MV-4-11. In kind it is cell-based. The settings on record: Homo sapiens, MV4-11, 72 h, MV-4-11 cells. The method in brief: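 GI50 derived from 490 nm absorbance using CellTiter 96 Aqueous One reagent, with compound-free medium providing the background. Human AML MV-4-11 cells, seeded at 5×10^4 per well in IMDM/10% FBS, incubated 72 h at 37 °C with duplicate serial dilutions of test compound.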

Some results are limits rather than exact numbers.

Chain of cDNA-expressed human hepatic CYP3A4 (P08684 whole entry): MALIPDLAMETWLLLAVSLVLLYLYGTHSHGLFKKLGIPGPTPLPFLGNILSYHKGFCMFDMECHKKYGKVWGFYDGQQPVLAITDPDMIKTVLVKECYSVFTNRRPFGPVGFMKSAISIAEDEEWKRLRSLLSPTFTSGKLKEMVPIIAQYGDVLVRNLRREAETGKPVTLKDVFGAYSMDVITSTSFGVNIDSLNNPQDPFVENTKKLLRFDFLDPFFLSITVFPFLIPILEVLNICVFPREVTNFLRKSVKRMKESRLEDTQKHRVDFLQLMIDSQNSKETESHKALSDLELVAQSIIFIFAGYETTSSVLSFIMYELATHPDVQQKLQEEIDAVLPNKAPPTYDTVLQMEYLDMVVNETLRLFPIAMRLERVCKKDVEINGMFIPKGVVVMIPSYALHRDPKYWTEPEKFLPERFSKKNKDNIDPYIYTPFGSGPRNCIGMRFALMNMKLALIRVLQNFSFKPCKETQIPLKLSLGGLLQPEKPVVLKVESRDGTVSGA

Consider `C=CCN1CC(=O)N2[C@@H](Cc3ccc(O)cc3)C(=O)N(Cc3cccc4c(-c5ccc(C(=O)Nc6ccc(N)cc6)cc5)cn(C)c34)C[C@@H]2N1C(=O)NCc1ccccc1` [Compound D-18], for which the IC50 in data set [1] came to 2420 nM. In data set [2], the GI50 came out at 1.2 nM.

Turning to `C=CCN1CC(=O)N2C(CN(Cc3cccc4c(-c5ccc(S(C)(=O)=O)cc5)cn(C)c34)C(=O)[C@@H]2Cc2ccc(O)cc2)N1C(=O)NCc1ccccc1` (some centres unmarked) [Compound H-3], the 50% inhibitory concentration (IC50) in data set [1] was 10000 nM. The molecule also displayed a GI50 in data set [2] of 2.2 nM. For `C=CCN1CC(=O)N2[C@@H](Cc3ccc(O)cc3)C(=O)N(Cc3cccc4c(-c5ccc(NC(=O)c6ccc(CN(CC)CC)cc6)cc5)cn(C)c34)C[C@@H]2N1C(=O)NCc1ccccc1` [Compound D-55] the same measures were 2260 nM and 5.8 nM.

In data set [1], `C=CCN1CC(=O)N2[C@@H](Cc3ccc(O)cc3)C(=O)N(Cc3cccc4c(C(=O)N5CCC(C(=O)OCC)CC5)cn(C)c34)C[C@@H]2N1C(=O)NCc1ccccc1` [Compound E-53] displayed an IC50 of 3860 nM. It took 1.9 nM to inhibit growth in data set [2] by half (GI50). In data set [1], `C=CCN1CC(=O)N2[C@@H](Cc3ccc(O)cc3)C(=O)N(Cc3cccc4c(-c5cnc6ccccc6c5)cn(C)c34)C[C@@H]2N1C(=O)NCc1ccccc1` [Compound H-6] showed an IC50 of 2090 nM. This molecule also had a GI50 in data set [2] of 9.7 nM.

Regarding `C=CCN1CC(=O)N2[C@@H](Cc3ccc(O)cc3)C(=O)N(Cc3cccc4c(C(=O)Nc5ccc(OCCCN(C)C)nc5)cn(C)c34)C[C@@H]2N1C(=O)NCc1ccccc1` [Compound G-13], in data set [1], the IC50 was found to be 13000 nM. It took 9 nM to inhibit growth in data set [2] by half (GI50). In turn, `C=CCN1CC(=O)N2[C@@H](Cc3ccc(O)cc3)C(=O)N(Cc3cccc4c(C(=O)N5CCN(CCN6CCOCC6)CC5)cn(C)c34)C[C@@H]2N1C(=O)NCc1ccccc1` [Compound E-25] showed an IC50 in data set [1] of 6090 nM. The molecule also came in with a GI50 in data set [2] of 20.4 nM. Consider `C=CCN1CC(=O)N2[C@@H](Cc3ccc(O)cc3)C(=O)N(Cc3cccc4c(C(=O)N5CC(N6CCC(OC)CC6)C5)cn(C)c34)C[C@@H]2N1C(=O)NCc1ccccc1` [Compound E-73], for which the IC50 in data set [1] was found to be 11800 nM. The molecule also had a GI50 in data set [2] of 19.3 nM. As for `C=CCN1CC(=O)N2C(Cc3ccc(O)cc3)C(=O)N(Cc3cccc4c(C(=O)Nc5ccc(NCCN6CCCCC6)nc5)cn(C)c34)CC2N1C(=O)NCc1ccccc1` (centres unmarked) [Compound G-27], half-maximal inhibition in data set [1] (IC50) was put at 2530 nM. For the same molecule, in data set [2], the GI50 stood at 2 nM. `C=CCN1CC(=O)N2[C@@H](Cc3ccc(O)cc3)C(=O)N(Cc3cccc4c(C(=O)Nc5ccc(N6CCCN(C)CC6)nc5)cn(C)c34)C[C@@H]2N1C(=O)NCc1ccccc1` [Compound G-67]: the IC50 in data set [1] came to 11200 nM. Besides, in data set [2], it took 1.3 nM to inhibit growth by half (GI50).

`C=CCN1CC(=O)N2C(Cc3ccc(O)cc3)C(=O)N(Cc3cccc4c(C(=O)Nc5ccc(N6CCN(CCO)CC6)nc5)cn(C)c34)CC2N1C(=O)NCc1ccccc1` (centres unmarked) [Compound G-44]: in data set [1], the IC50 was found to be 6040 nM. The molecule also displayed a GI50 in data set [2] of 1.3 nM. `C=CCN1CC(=O)N2[C@@H](Cc3ccc(O)cc3)C(=O)N(Cc3cccc4c(-c5ccc(C(=O)N(C)C)o5)cn(C)c34)C[C@@H]2N1C(=O)NCc1ccccc1` [Compound D-102] came in with an IC50 in data set [1] of 3420 nM. The same molecule displayed a GI50 in data set [2] of 1.6 nM. For `C=CCN1CC(=O)N2[C@@H](Cc3ccc(O)cc3)C(=O)N(Cc3cccc4c(C(=O)NCCCCOC)cn(C)c34)C[C@@H]2N1C(=O)NCc1ccccc1` [Compound F-10] the same measures were 2010 nM and 15.1 nM. Take `C=CCN1CC(=O)N2C(Cc3ccc(O)cc3)C(=O)N(Cc3cccc4c(C(=O)Nc5ccc(N6CCN(C(C)=O)CC6)nc5)cn(C)c34)CC2N1C(=O)NCc1ccccc1` (centres unmarked) [Compound G-53]: in data set [1], the IC50 was more than 25000 nM. Besides, in data set [2], it took 1.3 nM to inhibit growth by half (GI50). Turning to `C=CCN1CC(=O)N2[C@@H](Cc3ccc(O)cc3)C(=O)N(Cc3cccc4c(-c5ccc(NC(=O)N6CCOCC6)cc5)cn(C)c34)C[C@@H]2N1C(=O)NCc1ccccc1` [Compound D-59], 2190 nM corresponded to half-maximal inhibition in data set [1] (IC50). The molecule further returned a GI50 in data set [2] of 1.2 nM. For `C=CCN1CC(=O)N2[C@@H](Cc3ccc(O)cc3)C(=O)N(Cc3cccc4c(C(=O)N(C)CCCO)cn(C)c34)C[C@@H]2N1C(=O)NCc1ccccc1` [Compound F-5] the same measures were 3680 nM and 16 nM.

For the molecule `C=CCN1CC(=O)N2C(Cc3ccc(O)cc3)C(=O)N(Cc3cccc4c(-c5ccc(NC(=O)N6CCN(S(C)(=O)=O)CC6)nc5)cn(C)c34)CC2N1C(=O)NCc1ccccc1` (centres unmarked) [Compound G-68], the IC50 in data set [1] is 6400 nM. This molecule came in with a GI50 in data set [2] of 2.2 nM. Consider `C=CCN1CC(=O)N2[C@@H](Cc3ccc(O)cc3)C(=O)N(Cc3cccc4c(C(=O)Nc5ccc(N6CCN(C7CCCC7)CC6)nc5)cn(C)c34)C[C@@H]2N1C(=O)NCc1ccccc1` [Compound G-50], for which the IC50 in data set [1] came out at 17200 nM. The same molecule returned a GI50 in data set [2] of 2.4 nM. `C=CCN1CC(=O)N2[C@@H](Cc3ccc(O)cc3)C(=O)N(Cc3cccc4c(-c5ccc(NC(=O)N6CCOCC6)nc5)cn(C)c34)C[C@@H]2N1C(=O)NCc1ccccc1` [Compound D-88] had an IC50 in data set [1] of 10200 nM. In data set [2], this molecule returned a GI50 of 1.2 nM. Molecule `C=CCN1CC(=O)N2[C@@H](Cc3ccc(O)cc3)C(=O)N(Cc3cccc4c(C(=O)Nc5ccc(N6CC(N7CCN(C)CC7)C6)nc5)cn(C)c34)C[C@@H]2N1C(=O)NCc1ccccc1` [Compound G-62] registered an IC50 in data set [1] of 4100 nM. In data set [2], this molecule had a GI50 of 1.4 nM. Take `C=CCN1CC(=O)N2C(Cc3ccc(O)cc3)C(=O)N(Cc3cccc4c(C(=O)Nc5ccc(NCCN6CCOCC6)nc5)cn(C)c34)CC2N1C(=O)NCc1ccccc1` (centres unmarked) [Compound G-28]: the IC50 in data set [1] stood at 2320 nM. The same molecule yielded a GI50 in data set [2] of 5.6 nM. For `C=CCN1CC(=O)N2[C@@H](Cc3ccc(O)cc3)C(=O)N(Cc3cccc4c(-c5ccc(NC(=O)c6ccc(NC)cc6)cc5)cn(C)c34)C[C@@H]2N1C(=O)NCc1ccccc1` [Compound D-56] the same measures were more than 25000 nM and 12.5 nM. For the molecule `C=CCN1CC(=O)N2[C@@H](Cc3ccc(O)cc3)C(=O)N(Cc3cccc4c(-c5cnc(N(C)C)nc5)cn(C)c34)C[C@@H]2N1C(=O)NCc1ccccc1` [Compound H-7], inhibition in data set [1] was half-maximal at 6410 nM (IC50). The molecule also came in with a GI50 in data set [2] of 1.5 nM. `C=CCN1CC(=O)N2[C@@H](Cc3ccc(O)cc3)C(=O)N(Cc3cccc4c(C(=O)Nc5ccc(N6CC(N7CCC(OC)CC7)C6)nc5)cn(C)c34)C[C@@H]2N1C(=O)NCc1ccccc1` [Compound G-63] registered an IC50 in data set [1] of 2560 nM. Besides, in data set [2], the GI50 was found to be 1.5 nM. With `C=CCN1CC(=O)N2[C@@H](Cc3ccc(O)cc3)C(=O)N(Cc3cccc4c(-c5ccc(C(=O)Nc6ccccc6)cc5)cn(C)c34)C[C@@H]2N1C(=O)NCc1ccccc1` [Compound D-17], in data set [1], the IC50 is 7630 nM. The GI50 in data set [2] came to 6.9 nM. For `C=CCN1CC(=O)N2[C@@H](Cc3ccc(O)cc3)C(=O)N(Cc3cccc4c(C(=O)N(C)CC5(CO)CC5)cn(C)c34)C[C@@H]2N1C(=O)NCc1ccccc1` [Compound F-9] the same measures were 2530 nM and 15.4 nM. For the molecule `C=CCN1CC(=O)N2[C@@H](Cc3ccc(O)cc3)C(=O)N(Cc3cccc4c(-c5ccc(C(=O)NN6CCN(c7ccccn7)CC6)cc5)cn(C)c34)C[C@@H]2N1C(=O)NCc1ccccc1` [Compound D-44], the IC50 in data set [1] was more than 25000 nM. The molecule also gave a GI50 in data set [2] of 19.5 nM.

Regarding `C=CCN1CC(=O)N2[C@@H](Cc3ccc(O)cc3)C(=O)N(Cc3cccc4c(-c5ccc(NC(=O)NCC(C)(C)C)nc5)cn(C)c34)C[C@@H]2N1C(=O)NCc1ccccc1` [Compound D-96], in data set [1], 2190 nM corresponded to half-maximal inhibition (IC50). In turn, `C=CCN1CC(=O)N2[C@@H](Cc3ccc(O)cc3)C(=O)N(Cc3cccc4c(C(=O)N5CCC(C(=O)N(C)CCN(C)C)CC5)cn(C)c34)C[C@@H]2N1C(=O)NCc1ccccc1` [Compound E-54] yielded a half-inhibitory concentration (IC50) in data set [1] of 4970 nM. On to `C=CCN1CC(=O)N2[C@@H](Cc3ccc(O)cc3)C(=O)N(Cc3cccc4c(C(=O)NCCCO)cn(C)c34)C[C@@H]2N1C(=O)NCc1ccccc1` [Compound F-4], for which, in data set [1], half-maximal inhibition (IC50) was put at 16200 nM.

`C=CCN1CC(=O)N2[C@@H](Cc3ccc(O)cc3)C(=O)N(Cc3cccc4c(C(=O)N5CCC(N(C)C)CC5)cn(C)c34)C[C@@H]2N1C(=O)NCc1ccccc1` [Compound E-61]: in data set [1], the half-maximal inhibitory concentration (IC50) stood at 2230 nM.

Regarding `C=CCN1CC(=O)N2[C@@H](Cc3ccc(O)cc3)C(=O)N(Cc3cccc4c(C(=O)N5CCC(NC(=O)c6ccc(N7CCN(C)CC7)cc6)CC5)cn(C)c34)C[C@@H]2N1C(=O)NCc1ccccc1` [Compound E-60], the IC50 in data set [1] came out at 6020 nM.

Regarding `C=CCN1CC(=O)N2C(CN(Cc3cccc4c(C(=O)Nc5ccc(NCC(O)CO)nc5)cn(C)c34)C(=O)[C@@H]2Cc2ccc(O)cc2)N1C(=O)NCc1ccccc1` (some centres unmarked) [Compound G-21], in data set [1], the IC50 turned out to be 2550 nM. In data set [1], `C=CCN1CC(=O)N2[C@@H](Cc3ccc(O)cc3)C(=O)N(Cc3cccc4c(C(=O)NC5CCN(CCCO)CC5)cn(C)c34)C[C@@H]2N1C(=O)NCc1ccccc1` [Compound F-63] came in with an IC50 of 9710 nM. Molecule `C=CCN1CC(=O)N2[C@@H](Cc3ccc(O)cc3)C(=O)N(Cc3cccc4c(C(=O)N5CCN(C(C)=O)CC5)cn(C)c34)C[C@@H]2N1C(=O)NCc1ccccc1` [Compound E-14] registered an IC50 in data set [1] of 10900 nM.

As a reminder, the IC50 is the concentration at which inhibition is half-maximal. Broadly, the GI50 is the concentration that inhibits growth by half. A high value points to lower sensitivity of the cells.

These data come from patent publication US8940739B2, “Compound of a reverse-turn mimetic and a production method and use therefor” (JW Pharmaceutical Corporation, priority 2010, dated 2015).
